Reference: patent US10703755B2, “Substituted purine derivative” (SUMITOMO DAINIPPON PHARMA CO., LTD., priority 2016, dated 2020)
pIC50: −log10 of the molar value.

Target: human TLR7 (Homo sapiens (Human), UniProt Q9NYK1)
Assay: Test for evaluating the inhibition of the activation of human TLR7 (SEAP reporter, TLR7/NF-κB/SEAPorter HEK293 cell)
Type: cell-based
Conditions: R-848 200 nmol/L; for inhibitory effect against TLR7 in the test for evaluating inhibition of the activation of TLR7: SEAP activity, result in words; for pIC50: SEAP reporter
Summary of the method: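 The readout is secreted alkaline phosphatase under NF-κB response-element control in TLR7/NF-κB/SEAPorter HEK293 cells, which stably express full-length human TLR7. Cells were plated at 5×10^4 per well and grown overnight at 37° C, 5% CO2, in DMEM/10% FBS/blasticidin.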

Sequence of human TLR7 (Q9NYK1 27-1049): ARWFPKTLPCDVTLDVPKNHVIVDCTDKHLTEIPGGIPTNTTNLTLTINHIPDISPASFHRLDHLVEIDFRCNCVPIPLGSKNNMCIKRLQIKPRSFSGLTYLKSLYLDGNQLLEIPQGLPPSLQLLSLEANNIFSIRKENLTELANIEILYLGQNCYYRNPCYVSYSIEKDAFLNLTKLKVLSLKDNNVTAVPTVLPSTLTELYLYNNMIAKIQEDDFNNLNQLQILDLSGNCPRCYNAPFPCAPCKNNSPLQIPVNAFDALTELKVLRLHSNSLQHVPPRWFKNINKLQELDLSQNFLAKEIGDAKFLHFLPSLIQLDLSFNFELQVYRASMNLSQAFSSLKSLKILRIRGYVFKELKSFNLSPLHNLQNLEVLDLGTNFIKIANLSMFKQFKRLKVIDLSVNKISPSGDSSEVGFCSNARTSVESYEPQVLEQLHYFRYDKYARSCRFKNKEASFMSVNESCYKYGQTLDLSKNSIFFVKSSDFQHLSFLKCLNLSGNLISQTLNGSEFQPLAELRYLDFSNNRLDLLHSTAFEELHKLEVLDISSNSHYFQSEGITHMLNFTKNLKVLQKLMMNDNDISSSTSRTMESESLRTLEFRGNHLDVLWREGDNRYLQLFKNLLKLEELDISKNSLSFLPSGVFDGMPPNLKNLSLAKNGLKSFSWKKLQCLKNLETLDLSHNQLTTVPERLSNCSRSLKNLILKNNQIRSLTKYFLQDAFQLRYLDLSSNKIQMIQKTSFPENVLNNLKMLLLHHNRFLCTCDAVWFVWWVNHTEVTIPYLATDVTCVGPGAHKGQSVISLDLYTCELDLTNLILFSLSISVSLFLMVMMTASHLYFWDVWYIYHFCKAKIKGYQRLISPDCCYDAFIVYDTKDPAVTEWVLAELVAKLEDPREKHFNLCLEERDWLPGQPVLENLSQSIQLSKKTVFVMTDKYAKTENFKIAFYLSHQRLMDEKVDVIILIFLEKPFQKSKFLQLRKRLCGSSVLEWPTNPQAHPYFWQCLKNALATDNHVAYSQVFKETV

Row | SMILES | inhibitory effect against TLR7 in the test for evaluating inhibition of the activation of TLR7 | pIC50
1 | CCOc1nc(C)c2nc(-c3cncc(F)c3)n(Cc3ccc(C4CN5CCC4CC5)nc3OC)c2n1 (stereo not drawn) [Example 327] | potent inhibitory effect against TLR7 | 7.64
2 | COc1nc(C)c2nc(-c3cnc(C)nc3)n(Cc3ccc(OC4CN5CCC4CC5)cc3F)c2n1 (stereo not drawn) [Example 329] | – | 6.92
3 | CCOc1nc(C)c2nc(-c3cncc(F)c3)n(Cc3cnc(C4CN5CCC4CC5)cc3C)c2n1 (stereo not drawn) [Example 330] | – | 6.67
4 | COc1nc(C)c2nc(-c3cncc(F)c3)n(Cc3ccc(Br)c(F)c3)c2n1 [Example 332] | – | 5.19
5 | COc1nc(C)c2nc(-c3cncc(F)c3)n(Cc3ccc(Br)cc3F)c2n1 [Example 337] | – | 5.87
6 | CCOc1nc(C)c2nc(-c3cncc(F)c3)n(Cc3cnc(Cl)c(F)c3)c2n1 [Example 338] | – | 6.18
7 | CCOc1nc(C)c2nc(-c3cncc(F)c3)n(Cc3ccc(Br)cc3C#N)c2n1 [Example 339] | – | 6.80
8 | COc1nc(C)c2nc(-c3cncc(C#N)c3)n(Cc3ccc(C4CN5CCC4CC5)cc3F)c2n1 (stereo not drawn) [Example 340] | potent inhibitory effect against TLR7 | 7.59
9 | COc1nc(C)c2nc(-c3cncc(F)c3)n(Cc3ccc(OS(C)(=O)=O)cc3F)c2n1 [Example 342] | – | 6.09
10 | COc1nc(C)c2nc(-c3cncc(C#N)c3)n(Cc3ccc(C4CCNCC4)cc3F)c2n1 [Example 343] | potent inhibitory effect against TLR7 | 7.17
11 | COc1nc(C)c2nc(-c3cccc(C#N)c3)n(Cc3ccc(C4CN5CCC4CC5)cc3F)c2n1 (stereo not drawn) [Example 344, 3-{9-[4-(1-azabicyclo[2.2.2]oct-3-yl)-2-fluorobenzyl]-2-methoxy-6-methyl-9H-purin-8-yl}benzonitrile] | potent inhibitory effect against TLR7 | 7.92
12 | COc1nc(C)c2nc(-c3cccnc3)n(Cc3ccc(C4CCNCC4)cc3F)c2n1 [Example 345] | potent inhibitory effect against TLR7 | 7.44
13 | COc1nc(C)c2nc(-c3cncnc3)n(Cc3ccc(C4CN5CCC4CC5)cc3F)c2n1 (stereo not drawn) [Example 346] | potent inhibitory effect against TLR7 | 7.72
14 | COc1nc(C)c2nc(-c3ccncc3)n(Cc3ccc(C4CN5CCC4CC5)cc3F)c2n1 (stereo not drawn) [Example 347] | potent inhibitory effect against TLR7 | 7.46
15 | COc1nc(C)c2nc(-c3cnc(C)nc3)n(Cc3ccc(C4CN5CCC4CC5)cc3F)c2n1 (stereo not drawn) [Example 348] | potent inhibitory effect against TLR7 | 7.04
16 | CCOc1nc(C)c2nc(-c3cncc(F)c3)n(Cc3ccc(C4=CN5CCC4CC5)cn3)c2n1 [Example 352, 9-{[5-(1-Azabicyclo[2.2.2]oct-2-en-3-yl)pyridin-2-yl]methyl}-2-ethoxy-8-(5-fluoropyridin-3-yl)-6-methyl-9H-purine] | – | 6.30
17 | COc1nc(C)c2nc(-c3cncc(F)c3)n(Cc3ccc(C4=CN5CCC4CC5)cn3)c2n1 [Example 353] | – | 6.30
18 | CCOc1nc(C)c2nc(-c3cncc(F)c3)n(Cc3ccc(C4=CN5CCC4CC5)cc3OC)c2n1 [Example 354] | – | 7.44
19 | CCOc1nc(C)c2nc(-c3cncc(F)c3)n(Cc3cnc(C4=CN5CCC4CC5)cc3OC)c2n1 [Example 355] | – | 5.80
20 | CCOc1nc(C)c2nc(-c3cncc(F)c3)n(Cc3ccc(C4=CN5CCC4CC5)cc3OCC)c2n1 [Example 356] | – | 6.33
21 | COc1nc(C)c2nc(-c3cncc(F)c3)n(Cc3ccc(C4=CN5CCC4CC5)c(F)c3)c2n1 [Example 357] | – | 7.21
22 | Cc1nc(O)nc2c1nc(-c1cncc(F)c1)n2Cc1ccc(C2=CN3CCC2CC3)c(F)c1 [Example 358] | – | 7.74
23 | CCOc1nc(C)c2nc(-c3cncc(F)c3)n(Cc3ncc(C4=CN5CCC4CC5)cc3F)c2n1 [Example 359] | – | 6.07
24 | CCOc1nc(C)c2nc(-c3cncc(F)c3)n(Cc3ccc(C4=CN5CCC4CC5)nc3C(F)(F)F)c2n1 [Example 360] | – | 5.76
25 | CCOc1nc(C)c2nc(-c3cncc(F)c3)n(Cc3ccc(C4=CN5CCC4CC5)nc3C#N)c2n1 [Example 361] | – | 6.24

Row | SMILES | inhibitory effect against TLR7 in the test for evaluating inhibition of the activation of TLR7 | pIC50
26 | CCOc1nc(C)c2nc(-c3cncc(F)c3)n(Cc3ccc(C4=CN5CCC4CC5)cc3C#N)c2n1 [Example 363] | – | 6.23
27 | COc1nc(C)c2nc(-c3cncc(F)c3)n(Cc3cccc(C4=CN5CCC4CC5)c3)c2n1 [Example 364] | – | 7.96
28 | CCOc1nc(C)c2nc(-c3cncc(F)c3)n(Cc3cnc(CC4CCN(C(=O)OC(C)(C)C)CC4)cc3OC)c2n1 [Example 369] | – | 5.77
29 | CCOc1nc(C)c2nc(-c3cncc(F)c3)n(Cc3ccc(C4CN5CCC4CC5)cn3)c2n1 (stereo not drawn) [Example 370, 9-{[5-(1-Azabicyclo[2.2.2]oct-3-yl)pyridin-2-yl]methyl}-2-ethoxy-8-(5-fluoropyridin-3-yl)-6-methyl-9H-purine] | – | 6.93
30 | COc1nc(C)c2nc(-c3cncc(F)c3)n(Cc3ccc(C4CN5CCC4CC5)cn3)c2n1 (stereo not drawn) [Example 371] | – | 6.58
31 | CCOc1nc(C)c2nc(-c3cncc(F)c3)n(Cc3ccc(C4CN5CCC4CC5)cc3OC)c2n1 (stereo not drawn) [Example 372, 9-[4-(1-azabicyclo[2.2.2]oct-3-yl)-2-methoxybenzyl]-2-ethoxy-8-(5-fluoropyridin-3-yl)-6-methyl-9H-purine] | potent inhibitory effect against TLR7 | 7.96
32 | CCOc1nc(C)c2nc(-c3cncc(F)c3)n(Cc3ccccc3OC)c2n1 [Example 373] | – | 6.68
33 | CCOc1nc(C)c2nc(-c3cncc(F)c3)n(Cc3cnc(C4CN5CCC4CC5)cc3OC)c2n1 (stereo not drawn) [Example 374] | – | 5.79
34 | CCOc1nc(C)c2nc(-c3cncc(F)c3)n(Cc3cnc(C4CCN(C)CC4)cc3OC)c2n1 [Example 375] | – | 6.70
35 | CCOc1nc(C)c2nc(-c3cncc(F)c3)n(Cc3ccc(C4CN5CCC4CC5)cc3OCC)c2n1 (stereo not drawn) [Example 376] | potent inhibitory effect against TLR7 | 7.08
36 | COc1nc(C)c2nc(-c3cncc(F)c3)n(Cc3ccc(C4CN5CCC4CC5)c(F)c3)c2n1 (stereo not drawn) [Example 377, 9-[4-(1-azabicyclo[2.2.2]oct-3-yl)-3-fluorobenzyl]-8-(5-fluoropyridin-3-yl)-2-methoxy-6-methyl-9H-purine] | potent inhibitory effect against TLR7 | 8.15
37 | CCOc1nc(C)c2nc(-c3cncc(F)c3)n(Cc3ncc(C4CN5CCC4CC5)cc3F)c2n1 (stereo not drawn) [Example 379] | – | 6.30
38 | COc1nc(C)c2nc(-c3cccnc3)n(Cc3ccc(C4CN5CCC4CC5)c(F)c3)c2n1 (stereo not drawn) [Example 380] | – | 6.65
39 | CCOc1nc(C)c2nc(-c3cncc(F)c3)n(Cc3ccc(C4CN5CCC4CC5)nc3C(F)(F)F)c2n1 (stereo not drawn) [Example 381] | – | 5.86
40 | CCOc1nc(C)c2nc(-c3cncc(F)c3)n(Cc3ccc(C4CN5CCC4CC5)nc3C#N)c2n1 (stereo not drawn) [Example 382] | – | 6.24
41 | CCOc1nc(C)c2nc(-c3cncc(F)c3)n(Cc3cnc(C4CN5CCC4CC5)c(F)c3)c2n1 (stereo not drawn) [Example 383] | potent inhibitory effect against TLR7 | 7.08
42 | CCOc1nc(C)c2nc(-c3cncc(F)c3)n(Cc3ccc(C4CN5CCC4CC5)cc3C#N)c2n1 (stereo not drawn) [Example 384] | – | 6.57
43 | COc1nc(C)c2nc(-c3cncc(F)c3)n(Cc3ccc(C4CCN(C(=O)OC(C)(C)C)CC4)cc3F)c2n1 [Example 385] | – | 7.03
44 | COc1nc(C)c2nc(-c3cncc(F)c3)n(Cc3cccc(C4CN5CCC4CC5)c3)c2n1 (stereo not drawn) [Example 386, 9-[3-(1-azabicyclo[2.2.2]oct-3-yl)benzyl]-8-(5-fluoropyridin-3-yl)-2-methoxy-6-methyl-9H-purine] | potent inhibitory effect against TLR7 | 7.89
45 | Cc1nc(O)nc2c1nc(-c1cncc(F)c1)n2Cc1ccc(C2CN3CCC2CC3)cc1 (stereo not drawn) [Example 388, 9-[4-(1-Azabicyclo[2.2.2]oct-3-yl)benzyl]-8-(5-fluoropyridin-3-yl)-6-methyl-9H-purin-2-ol] | – | 5.87
46 | Cc1nc(O)nc2c1nc(-c1cncc(F)c1)n2Cc1ccc(C2CN3CCC2CC3)cc1F (stereo not drawn) [Example 389] | – | 5.69
47 | COc1nc(C)c2nc(-c3cncc(F)c3)n(Cc3ccc(C4CN5CCC4CC5)cc3F)c2n1 (stereo not drawn) [Example 392, 9-[4-(1-azabicyclo[2.2.2]oct-3-yl)-2-fluorobenzyl]-8-(5-fluoropyridin-3-yl)-2-methoxy-6-methyl-9H-purine] | potent inhibitory effect against TLR7 | –
48 | COc1nc(C)c2nc(-c3cncc(F)c3)n(Cc3ccc(C4CN5CCC4CC5)cc3F)c2n1 (stereo not drawn) [Example 393, 9-[4-(1-azabicyclo[2.2.2]oct-3-yl)-2-fluorobenzyl]-8-(5-fluoropyridin-3-yl)-2-methoxy-6-methyl-9H-purine] | potent inhibitory effect against TLR7 | –
49 | COc1nc(C)c2nc(-c3cncc(F)c3)n(Cc3ccc(O)cc3F)c2n1 [Example 404, 3-Fluoro-4-{[8-(5-fluoropyridin-3-yl)-2-methoxy-6-methyl-9H-purin-9-yl]methyl}phenol] | – | 6.07
50 | COc1ccc(Cn2c(-c3cncc(F)c3)nc3c(C)nc(OC)nc32)c(F)c1 [Example 405, 9-(2-fluoro-4-methoxybenzyl)-8-(5-fluoropyridin-3-yl)-2-methoxy-6-methyl-9H-purine] | – | 5.47
